According to ChEMBL document CHEMBL1138676, “Liver-selective glucocorticoid antagonists: a novel treatment for type 2 diabetes” (J Med Chem, 2004):

What was measured:
Estrogen receptor beta = Estrogen receptor beta (Homo sapiens, UniProt Q92731); assay: Inhibition of human Estrogen receptor beta
[1] = biological target: Glucocorticoid receptor (Rattus norvegicus) (UniProt P06536); assay: Inhibition of glucocorticoid receptor mediated tyrosine amino transferase activity
Glucocorticoid receptor [2] = biological target: T1, Glucocorticoid receptor (Homo sapiens, UniProt P04150); assay: Inhibition of human glucocorticoid receptor
T1 sequence (P04150 whole entry): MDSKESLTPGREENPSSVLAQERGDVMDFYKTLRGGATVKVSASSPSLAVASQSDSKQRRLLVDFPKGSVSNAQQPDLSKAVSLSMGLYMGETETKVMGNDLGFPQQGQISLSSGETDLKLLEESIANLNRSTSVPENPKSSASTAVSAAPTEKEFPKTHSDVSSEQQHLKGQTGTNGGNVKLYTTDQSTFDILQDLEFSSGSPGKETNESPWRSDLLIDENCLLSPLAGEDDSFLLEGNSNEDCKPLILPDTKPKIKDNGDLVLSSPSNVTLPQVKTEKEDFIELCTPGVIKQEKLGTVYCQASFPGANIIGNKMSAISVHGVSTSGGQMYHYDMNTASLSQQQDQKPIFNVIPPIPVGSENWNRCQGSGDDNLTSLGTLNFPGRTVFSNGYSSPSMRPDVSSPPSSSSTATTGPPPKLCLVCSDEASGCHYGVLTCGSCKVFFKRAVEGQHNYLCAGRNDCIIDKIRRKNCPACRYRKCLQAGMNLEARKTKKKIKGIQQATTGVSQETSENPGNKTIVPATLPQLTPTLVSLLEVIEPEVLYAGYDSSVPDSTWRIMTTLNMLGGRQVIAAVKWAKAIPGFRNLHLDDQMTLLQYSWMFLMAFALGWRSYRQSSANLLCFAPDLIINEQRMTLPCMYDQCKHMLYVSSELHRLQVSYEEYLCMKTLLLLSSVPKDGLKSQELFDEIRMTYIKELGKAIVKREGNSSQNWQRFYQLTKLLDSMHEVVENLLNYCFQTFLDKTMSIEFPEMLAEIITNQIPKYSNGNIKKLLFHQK

Glucocorticoid receptor [3] = biological target: T1, Glucocorticoid receptor; assay: Inhibition of glucocorticoid receptor dependent alkaline phosphatase activity; format: functional
Estrogen receptor = biological target: T2, Estrogen receptor (Homo sapiens, UniProt P03372); assay: Inhibition of human Estrogen receptor alpha
T2 sequence (P03372 whole entry): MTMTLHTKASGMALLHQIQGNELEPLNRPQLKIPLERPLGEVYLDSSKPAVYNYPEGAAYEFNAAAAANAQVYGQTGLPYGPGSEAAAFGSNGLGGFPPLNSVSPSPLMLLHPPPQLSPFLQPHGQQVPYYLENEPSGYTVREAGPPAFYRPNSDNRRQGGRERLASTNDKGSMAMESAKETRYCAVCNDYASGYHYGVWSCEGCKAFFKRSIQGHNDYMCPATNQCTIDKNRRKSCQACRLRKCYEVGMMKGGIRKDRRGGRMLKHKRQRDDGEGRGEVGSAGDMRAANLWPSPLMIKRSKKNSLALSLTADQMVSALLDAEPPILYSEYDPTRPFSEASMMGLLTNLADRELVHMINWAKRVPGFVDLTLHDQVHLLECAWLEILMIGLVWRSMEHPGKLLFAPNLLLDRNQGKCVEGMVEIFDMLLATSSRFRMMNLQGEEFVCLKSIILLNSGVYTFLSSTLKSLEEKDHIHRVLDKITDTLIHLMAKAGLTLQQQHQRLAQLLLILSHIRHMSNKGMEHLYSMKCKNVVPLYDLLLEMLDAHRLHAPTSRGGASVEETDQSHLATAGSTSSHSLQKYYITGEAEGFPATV

[4] = biological target: T3, Thyroid hormone receptor beta (Homo sapiens, UniProt P10828); assay: Inhibition of human Thyroid hormone receptor beta
T3 sequence (P10828 whole entry): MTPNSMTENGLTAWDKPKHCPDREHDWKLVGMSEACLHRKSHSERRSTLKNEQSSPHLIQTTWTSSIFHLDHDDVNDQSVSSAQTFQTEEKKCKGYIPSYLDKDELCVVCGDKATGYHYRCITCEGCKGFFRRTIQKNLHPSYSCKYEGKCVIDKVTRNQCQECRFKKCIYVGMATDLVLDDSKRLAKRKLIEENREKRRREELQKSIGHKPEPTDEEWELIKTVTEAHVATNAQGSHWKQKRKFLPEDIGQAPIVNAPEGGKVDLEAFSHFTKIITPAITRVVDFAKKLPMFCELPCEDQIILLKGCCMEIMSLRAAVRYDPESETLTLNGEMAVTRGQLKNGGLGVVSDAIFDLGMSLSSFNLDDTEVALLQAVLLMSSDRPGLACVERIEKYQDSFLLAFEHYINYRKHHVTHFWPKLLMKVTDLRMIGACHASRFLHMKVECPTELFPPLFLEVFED

[5] = biological target: T4, Thyroid hormone receptor alpha (Homo sapiens, UniProt P10827); assay: Inhibition of human Thyroid hormone receptor alpha
T4 sequence (P10827 whole entry): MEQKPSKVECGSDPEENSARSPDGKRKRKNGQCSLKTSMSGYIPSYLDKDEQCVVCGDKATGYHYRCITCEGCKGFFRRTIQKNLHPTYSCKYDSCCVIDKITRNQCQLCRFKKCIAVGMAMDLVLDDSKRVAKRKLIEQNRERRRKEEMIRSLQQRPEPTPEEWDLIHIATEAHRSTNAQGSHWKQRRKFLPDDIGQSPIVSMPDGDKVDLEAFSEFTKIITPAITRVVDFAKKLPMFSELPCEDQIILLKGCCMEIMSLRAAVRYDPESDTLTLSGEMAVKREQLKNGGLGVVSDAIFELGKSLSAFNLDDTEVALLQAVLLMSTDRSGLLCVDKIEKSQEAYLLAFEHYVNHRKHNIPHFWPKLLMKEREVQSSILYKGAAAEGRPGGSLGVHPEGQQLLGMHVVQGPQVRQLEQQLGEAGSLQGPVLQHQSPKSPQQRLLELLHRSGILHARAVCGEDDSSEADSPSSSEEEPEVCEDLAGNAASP

Estrogen receptor beta, sequence (Q92731 whole entry): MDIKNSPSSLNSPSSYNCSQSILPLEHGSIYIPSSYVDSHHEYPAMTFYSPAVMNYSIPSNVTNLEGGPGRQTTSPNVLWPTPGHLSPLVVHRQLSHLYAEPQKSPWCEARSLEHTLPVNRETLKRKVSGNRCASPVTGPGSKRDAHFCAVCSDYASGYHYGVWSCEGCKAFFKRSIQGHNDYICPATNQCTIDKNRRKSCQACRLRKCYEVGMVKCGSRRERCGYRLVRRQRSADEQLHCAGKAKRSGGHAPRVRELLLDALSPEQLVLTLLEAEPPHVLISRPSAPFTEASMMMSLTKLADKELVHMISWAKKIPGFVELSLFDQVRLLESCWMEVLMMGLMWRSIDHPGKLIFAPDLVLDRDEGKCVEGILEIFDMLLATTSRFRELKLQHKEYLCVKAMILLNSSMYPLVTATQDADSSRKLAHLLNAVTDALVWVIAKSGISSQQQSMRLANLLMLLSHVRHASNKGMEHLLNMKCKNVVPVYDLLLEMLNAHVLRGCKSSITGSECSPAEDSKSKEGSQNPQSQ
Glucocorticoid receptor (Rattus norvegicus), sequence (P06536 whole entry, looked up): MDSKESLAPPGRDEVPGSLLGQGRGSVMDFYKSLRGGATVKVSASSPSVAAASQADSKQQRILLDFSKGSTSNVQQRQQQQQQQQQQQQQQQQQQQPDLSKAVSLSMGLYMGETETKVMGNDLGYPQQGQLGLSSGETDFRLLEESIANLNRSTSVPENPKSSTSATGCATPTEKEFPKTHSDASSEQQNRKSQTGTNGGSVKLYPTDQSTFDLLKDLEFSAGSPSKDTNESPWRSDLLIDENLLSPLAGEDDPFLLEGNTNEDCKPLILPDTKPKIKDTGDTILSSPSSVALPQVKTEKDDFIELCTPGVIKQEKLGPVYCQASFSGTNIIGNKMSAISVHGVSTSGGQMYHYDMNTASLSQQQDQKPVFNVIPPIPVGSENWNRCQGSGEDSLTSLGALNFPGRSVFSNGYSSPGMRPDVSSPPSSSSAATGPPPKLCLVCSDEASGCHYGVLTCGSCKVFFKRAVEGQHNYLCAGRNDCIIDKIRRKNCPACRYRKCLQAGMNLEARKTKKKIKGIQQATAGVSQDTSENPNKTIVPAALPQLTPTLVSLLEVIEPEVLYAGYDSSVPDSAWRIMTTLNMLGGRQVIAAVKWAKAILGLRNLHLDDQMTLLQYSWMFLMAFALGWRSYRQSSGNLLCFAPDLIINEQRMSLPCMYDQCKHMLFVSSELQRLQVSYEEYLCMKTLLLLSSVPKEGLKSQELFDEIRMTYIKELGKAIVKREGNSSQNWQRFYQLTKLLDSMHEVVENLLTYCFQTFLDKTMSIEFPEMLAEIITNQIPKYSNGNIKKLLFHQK

| Ki (Estrogen receptor beta) [µM] | Ki [1] [µM] | Ki (Glucocorticoid receptor [2]) [µM] | Ki (Glucocorticoid receptor [3]) [µM] | Ki (Estrogen receptor) [µM] | Ki [4] [µM] | Ki [5] [µM] | Compound |
| --- | --- | --- | --- | --- | --- | --- | --- |
| 0.039 | 0.06 | 0.00042 | 0.015 | 0.019 | – | – | C#C[C@]1(O)CC[C@H]2[C@@H]3CCC4=CC(=O)CCC4=C3[C@@H](c3ccc(N(C)CCCS(=O)(=O)N(C)C4CC[C@@]5(C)[C@@H](C4)C[C@@H](O)[C@@H]4[C@@H]5C[C@H](O)[C@]5(C)[C@@H]([C@H](C)CCC(=O)O)CC[C@@H]45)cc3)C[C@@]21C (stereo partly specified) |
| > 0.75 | 0.23 | 0.0011 | 0.049 | 0.094 | > 2.25 | > 1.25 | C#C[C@]1(O)CC[C@H]2[C@@H]3CCC4=CC(=O)CCC4=C3[C@@H](c3ccc(N(C)C(=O)CNC(=O)O[C@@H]4C[C@@H]5CC(O)CC[C@]5(C)[C@H]5C[C@H](O)[C@]6(C)[C@@H]([C@H](C)CCC(=O)O)CC[C@H]6[C@H]45)cc3)C[C@@]21C (stereo partly specified) |
| 0.19 | 0.034 | 0.0003 | 0.015 | 0.14 | > 2.25 | > 1.25 | C#C[C@]1(O)CC[C@H]2[C@@H]3CCC4=CC(=O)CCC4=C3[C@@H](c3ccc(N(C)CCNC(=O)N(C)C4CC[C@@]5(C)[C@@H](C4)C[C@@H](O)[C@@H]4[C@@H]5C[C@H](O)[C@]5(C)[C@@H]([C@H](C)CCC(=O)O)CC[C@@H]45)cc3)C[C@@]21C (stereo partly specified) |
| 0.11 | 0.056 | 0.00027 | 0.0011 | 0.012 | 1.5 | 0.67 | C#C[C@]1(O)CC[C@H]2[C@@H]3CCC4=CC(=O)CCC4=C3[C@@H](c3ccc(N(C)CCOC4CC[C@@]5(C)[C@@H](C4)C[C@@H](O)[C@@H]4[C@@H]5C[C@H](O)[C@]5(C)[C@@H]([C@H](C)CCC(=O)O)CC[C@@H]45)cc3)C[C@@]21C (stereo in doubt; form 2) |
| 0.16 | 0.34 | 0.0021 | 0.05 | 0.011 | > 2.25 | 1.1 | C#C[C@]1(O)CC[C@H]2[C@@H]3CCC4=CC(=O)CCC4=C3[C@@H](c3ccc(N(C)C(=O)CNC(=O)OC4CC[C@@]5(C)[C@@H](C4)C[C@@H](O)[C@@H]4[C@@H]5C[C@H](O)[C@]5(C)[C@@H]([C@H](C)CCC(=O)O)CC[C@@H]45)cc3)C[C@@]21C (stereo partly specified) |
| 0.089 | 0.22 | 0.00067 | 0.011 | 0.011 | > 2.25 | > 1.25 | C#C[C@]1(O)CC[C@H]2[C@@H]3CCC4=CC(=O)CCC4=C3[C@@H](c3ccc(N(C)CCOC4CC[C@@]5(C)[C@@H](C4)C[C@@H](O)[C@@H]4[C@@H]5C[C@H](O)[C@]5(C)[C@@H]([C@H](C)CCC(=O)O)CC[C@@H]45)cc3)C[C@@]21C (stereo in doubt; form 1) |
| 0.051 | 0.056 | 0.00017 | 0.0011 | 0.014 | > 2.25 | > 1.25 | C#C[C@]1(O)CC[C@H]2[C@@H]3CCC4=CC(=O)CCC4=C3[C@@H](c3ccc(N(C)CCOCCO[C@H]4CC[C@@]5(C)[C@@H](C4)C[C@@H](O)[C@@H]4[C@@H]5C[C@H](O)[C@]5(C)[C@@H]([C@H](C)CCC(=O)O)CC[C@@H]45)cc3)C[C@@]21C |
| – | 0.18 | 0.00042 | 0.0086 | – | > 2.25 | > 1.25 | C#C[C@]1(O)CC[C@H]2[C@@H]3CCC4=CC(=O)CCC4=C3[C@@H](c3ccc(N(C)CCOC4CC[C@@]5(C)[C@@H](C4)C[C@@H](O)[C@@H]4[C@@H]5C[C@H](O)[C@]5(C)[C@@H]([C@H](C)CCC(=O)NCC(=O)O)CC[C@@H]45)cc3)C[C@@]21C (stereo partly specified) |
| 0.013 | 0.1 | 0.00022 | 0.0011 | 0.0088 | 1.9 | > 1.25 | C#C[C@]1(O)CC[C@H]2[C@@H]3CCC4=CC(=O)CCC4=C3[C@@H](c3ccc(N(C)CCCOC4CC[C@@]5(C)[C@@H](C4)C[C@@H](O)[C@@H]4[C@@H]5C[C@H](O)[C@]5(C)[C@@H]([C@H](C)CCC(=O)O)CC[C@@H]45)cc3)C[C@@]21C (stereo partly specified) |
| 0.03 | 0.16 | 0.00027 | 0.037 | 0.01 | > 2.25 | > 1.25 | C#C[C@]1(O)CC[C@H]2[C@@H]3CCC4=CC(=O)CCC4=C3[C@@H](c3ccc(N(C)CCOC4CC[C@@]5(C)[C@@H](C4)C[C@@H](O)[C@@H]4[C@@H]5C[C@H](O)[C@]5(C)[C@@H]([C@H](C)CCC(=O)NCCS(=O)(=O)O)CC[C@@H]45)cc3)C[C@@]21C (stereo partly specified) |
| 0.57 | – | 0.0004 | 0.0014 | 0.034 | > 2.25 | 0.79 | C#C[C@]1(O)CC[C@H]2[C@@H]3CCC4=CC(=O)CCC4=C3[C@@H](c3ccc(N(C)C(C)=O)cc3)C[C@@]21C |
| > 0.75 | 0.33 | 0.00039 | 0.0014 | > 0.2 | > 2.25 | > 1.25 | C#C[C@]1(O)CC[C@H]2[C@@H]3CCC4=CC(=O)CCC4=C3[C@@H](c3ccc(N(C)CCNC(=O)OC4CC[C@@]5(C)[C@@H](C4)C[C@@H](O)[C@@H]4[C@@H]5C[C@H](O)[C@]5(C)[C@@H]([C@H](C)CCC(=O)O)CC[C@@H]45)cc3)C[C@@]21C (stereo partly specified) |
| 0.24 | 0.35 | 0.003 | 0.25 | 0.072 | > 2.25 | 1.2 | C#C[C@]1(O)CC[C@H]2[C@@H]3CCC4=CC(=O)CCC4=C3[C@@H](c3ccc(N(C)C(=O)CC[C@H](NC(=O)CC[C@@H](C)[C@H]4CC[C@H]5[C@@H]6[C@H](O)C[C@@H]7C[C@H](O)CC[C@]7(C)[C@H]6C[C@H](O)[C@]45C)C(=O)O)cc3)C[C@@]21C |
| 0.048 | 0.34 | 0.0008 | 0.052 | 0.046 | – | – | C#C[C@]1(O)CC[C@H]2[C@@H]3CCC4=CC(=O)CCC4=C3[C@@H](c3ccc(N(C)CCC[C@H]4[C@H](O)CC[C@@]5(C)[C@@H]4C[C@@H](O)[C@@H]4[C@@H]5C[C@H](O)[C@]5(C)[C@@H]([C@H](C)CCC(=O)O)CC[C@@H]45)cc3)C[C@@]21C |
